Active and inactive are the calls of the source. The calls are words filed in the database; no cut-off is given here.
Assays:
[1] = MRT (0 to infinity) in Sprague-Dawley rat at 20 mg/kg, po measured upto 48 hrs by UPLC-triple quadrupole MS analysis; assay type: ADME, organism-based; details: in vivo
[2] = Cmax in Sprague-Dawley rat at 2 mg/kg, iv measured upto 48 hrs by UPLC-triple quadrupole MS analysis; assay type: ADME, organism-based; design: dose 2 mg/kg, time < 48 hrs, route iv; details: in vivo
[3] = AUC (0 to infinity) in Sprague-Dawley rat at 2 mg/kg, iv measured upto 48 hrs by UPLC-triple quadrupole MS analysis; assay type: ADME, organism-based; design: time < 48 hrs, dose 2 mg/kg, route iv; details: in vivo
[4] = system: Mus musculus; assay: In vivo inhibition of STING signalling pathway in ip dosed cisplatin-induced acute kidney injury in C57BL/6J mouse model assessed as reduction in CXCL10 expression in blood of mouse eyeballs pretreated for 1 hr followed by cisplatin administration and measured after 72 hrs by ELISA; assay type: functional, organism-based; details: time 73.0 hrs, DDE = dose-dependent effect
[5] = system: Mus musculus; assay: Renal protective activity against cisplatin-induced acute kidney injury in C57BL/6J mouse model assessed as improvement in renal blood flow velocity at 60 mg/kg, ip by B-mode ultrasound scanner analysis; assay type: functional, organism-based
[6] = Tmax in Sprague-Dawley rat at 2 mg/kg, iv measured upto 48 hrs by UPLC-triple quadrupole MS analysis; assay type: ADME, organism-based; details: in vivo
[7] = Half life in Sprague-Dawley rat at 20 mg/kg, po measured upto 48 hrs by UPLC-triple quadrupole MS analysis; assay type: ADME, organism-based; details: in vivo
[8] = system: Mus musculus; assay: Antiinflammatory activity against cisplatin-induced acute kidney injury in C57BL/6J mouse model assessed as reduction in ischemic symptoms at 30 mg/kg, ip pretreated for 1 hr followed by cisplatin administration and measured after 72 hrs relative to control; assay type: functional, organism-based; details: time 73.0 hrs
[9] = Renal toxicity in C57BL/6J mouse assessed as reduction in creatinine level at 60 mg/kg, ip (Rvb= 8.5 umol/L); assay type: organism-based; details: in vivo
[10] = system: Mus musculus; assay: Renal protective activity against cisplatin-induced acute kidney injury in C57BL/6J mouse model assessed as reduction in kidney swelling at 60 mg/kg, ip by NMR based analysis; assay type: functional, organism-based
[11] = MRT (0 to t) in Sprague-Dawley rat at 20 mg/kg, po measured upto 48 hrs by UPLC-triple quadrupole MS analysis; assay type: ADME, organism-based; details: in vivo
[12] = Toxicity in cisplatin-induced acute kidney injury in C57BL/6J mouse model assessed as marked inflammatory cell exudation in kidney at 30 to 60 mg/kg, ip pretreated for 1 hr followed by cisplatin administration and measured after 72 hrs by H and E staining based analysis; assay type: organism-based; details: in vivo, 73 h, dose 30-60 mg/kg
[13] = Cytotoxicity against HEK293-A cells assessed as cell growth inhibition at 30 uM by MTT assay relative to control; assay type: toxicity, cell-based; details: human
[14] = Toxicity in cisplatin-induced acute kidney injury in C57BL/6J mouse model assessed as morphological abnormalities in heart at 30 to 60 mg/kg, ip pretreated for 1 hr followed by cisplatin administration and measured after 72 hrs by H and E staining based analysis; assay type: organism-based; details: in vivo, 73 h, dose 30-60 mg/kg
[15] = AUC (0 to t) in Sprague-Dawley rat at 2 mg/kg, iv measured upto 48 hrs by UPLC-triple quadrupole MS analysis; assay type: ADME, organism-based; design: time < 48 hrs, dose 2 mg/kg, route iv; details: in vivo
[16] = Toxicity in C57BL/6J mouse model of cisplatin-induced acute kidney injury assessed as survival rate at 60 mg/kg, ip pretreated for 1 hr followed by cisplatin administration and measured after 72 hrs relative to control; assay type: organism-based; details: in vivo, 73 h
[17] = system: Mus musculus; assay: Antiinflammatory activity against cisplatin-induced acute kidney injury in C57BL/6J mouse model assessed as reduction in kidney weight at 30 mg/kg, ip pretreated for 1 hr followed by cisplatin administration and measured after 72 hrs relative to control; assay type: functional; design: scale not given: the % may be the effect or the level left; details: time 73 hrs
[18] = system: THP-1; assay: Inhibition of cGAS-STING signalling pathway in human THP-1 cells assessed as downregulation of cGAMP-triggered IFN-beta expression preincubated for 2 hrs followed by cGAMP stimulation and measured after 24 hrs by ELISA; assay type: cell-based; details: dose 2.5-20 µM, time 26.0 hrs, DDE = dose-dependent effect
[19] = biological target: T1, Protein cereblon/Stimulator of interferon genes protein (Homo sapiens, UniProt Q96SW2+Q86WV6); assay: Protac activity at CRBN/STING in human THP-1 cells assessed as increase in STING degradation at 10 uM incubated for 48 hrs by Western blot analysis relative to control; assay type: cell-based
T1 sequence (Q86WV6 whole entry, looked up): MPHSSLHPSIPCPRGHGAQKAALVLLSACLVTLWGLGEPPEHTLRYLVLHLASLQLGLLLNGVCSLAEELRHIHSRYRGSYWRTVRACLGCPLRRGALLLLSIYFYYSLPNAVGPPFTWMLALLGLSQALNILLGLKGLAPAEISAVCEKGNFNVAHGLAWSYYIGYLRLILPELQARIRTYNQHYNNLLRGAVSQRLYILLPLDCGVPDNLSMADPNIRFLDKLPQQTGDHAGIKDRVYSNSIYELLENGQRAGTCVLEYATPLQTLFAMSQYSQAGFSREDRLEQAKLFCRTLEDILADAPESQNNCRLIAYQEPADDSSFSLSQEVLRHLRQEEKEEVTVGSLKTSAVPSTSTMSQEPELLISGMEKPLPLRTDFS
T1 sequence (Q96SW2 whole entry, looked up): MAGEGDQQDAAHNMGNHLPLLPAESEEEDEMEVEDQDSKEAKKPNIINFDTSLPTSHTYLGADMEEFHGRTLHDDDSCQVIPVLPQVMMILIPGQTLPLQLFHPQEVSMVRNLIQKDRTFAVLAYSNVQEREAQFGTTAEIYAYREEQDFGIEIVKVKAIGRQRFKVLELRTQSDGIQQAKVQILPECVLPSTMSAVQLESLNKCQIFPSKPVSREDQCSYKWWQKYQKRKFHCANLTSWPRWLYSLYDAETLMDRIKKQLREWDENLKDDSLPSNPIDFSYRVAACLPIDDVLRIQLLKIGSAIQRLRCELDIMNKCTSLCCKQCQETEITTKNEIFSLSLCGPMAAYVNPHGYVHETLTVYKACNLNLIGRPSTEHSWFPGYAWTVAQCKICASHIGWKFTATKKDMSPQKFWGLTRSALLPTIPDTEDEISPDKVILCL

[20] = biological target: T1, Protein cereblon/Stimulator of interferon genes protein; assay: Protac activity at CRBN/STING in human THP-1 cells assessed as increase in STING degradation at 10 uM pretreated with lysosome inhibitor BAF for 1 hr followed by compound addition and measured after 48 hrs by Western blot analysis; assay type: cell-based
[21] = Cmax in Sprague-Dawley rat at 20 mg/kg, po measured upto 48 hrs by UPLC-triple quadrupole MS analysis; assay type: ADME, organism-based; design: time < 48 hrs, dose 20 mg/kg, route po; details: in vivo
[22] = biological target: Stimulator of interferon genes protein (Homo sapiens) (UniProt Q86WV6); assay: Inhibition of STING pathway in human THP-1 cells assessed as inhibition of cGAMP-triggered NF-kappaB p-p65 expression preincubated for 2 hrs followed by cGAMP stimulation and measured after 24 hrs by Western blot analysis; assay type: cell-based; details: dose 0-20 µM, time 26.0 hrs, DDE = dose-dependent effect
Stimulator of interferon genes protein (Homo sapiens), sequence (Q86WV6 whole entry): as the sequence (Q86WV6 whole entry, looked up) above

[23] = MRT (0 to infinity) in Sprague-Dawley rat at 2 mg/kg, iv measured upto 48 hrs by UPLC-triple quadrupole MS analysis; assay type: ADME, organism-based; details: in vivo
[24] = Toxicity in C57BL/6J mouse model of cisplatin-induced acute kidney injury assessed as survival rate at 30 mg/kg, ip pretreated for 1 hr followed by cisplatin administration and measured after 72 hrs relative to control; assay type: organism-based; details: in vivo, 73 h
[25] = Renal toxicity in C57BL/6J mouse assessed as reduction in BUN level at 60 mg/kg, ip (Rvb= 8.9 mmol/L); assay type: organism-based; details: in vivo
[26] = Apparent volume of distribution in Sprague-Dawley rat at 20 mg/kg, po measured upto 48 hrs by UPLC-triple quadrupole MS analysis; assay type: ADME, organism-based; details: in vivo
[27] = AUC (0 to t) in Sprague-Dawley rat at 20 mg/kg, po measured upto 48 hrs by UPLC-triple quadrupole MS analysis; assay type: ADME, organism-based; design: dose 20 mg/kg, time < 48 hrs, route po; details: in vivo
[28] = biological target: Stimulator of interferon genes protein (Homo sapiens) (UniProt Q86WV6); assay: Inhibition of STING pathway in human THP-1 cells assessed as inhibition of cGAMP-triggered pTBK1 expression preincubated for 2 hrs followed by cGAMP stimulation and measured after 24 hrs by Western blot analysis; assay type: cell-based; details: dose 0-20 µM, time 26.0 hrs, DDE = dose-dependent effect
[29] = biological target: T1, Protein cereblon/Stimulator of interferon genes protein; assay: Protac activity at CRBN/STING in human THP-1 cells assessed as increase in STING degradation at 10 uM measured after 4 to 48 hrs by Western blot analysis; assay type: cell-based; details: time 4-48 hrs, TDE = time-dependent effect
[30] = Clearance in Sprague-Dawley rat at 2 mg/kg, iv measured upto 48 hrs by UPLC-triple quadrupole MS analysis; assay type: ADME, organism-based; details: in vivo

O=C(/C=C/C(=O)Nc1ccc(NC(=O)c2ccc([N+](=O)[O-])o2)cc1)NCCCCCCNc1cccc2c1C(=O)N(C1CCC(=O)NC1=O)C2=O (stereo not given)
MRT inf [1]: 11.7 h
Cmax [2]: 318 ng/mL
AUC(0-inf) [3]: 259 ng·h/mL
inhibition [4]: Dde
Activity [5]: Active
Tmax [6]: 4.98 min
half-life [7]: 7.36 h
Activity [8]: Active
Activity [9]: 14.8 µmol/L
Activity [10]: Active
MRT last at 48 h [11]: 7.6 h
Activity [12]: Non-Toxic
inhibition at 30 µM [13]: 11%
Activity [14]: Non-Toxic
AUC(0-t) at 48 h [15]: 257 ng·h/mL
Survival [16]: 100%
Activity [17]: 14%
Activity [18]: Dde
Activity [19]: 76%
Activity [20]: Active
Cmax [21]: 8.37 ng/mL
inhibition [22]: Dde
MRT inf [23]: 1.95 h
Survival [24]: 89%
Activity [25]: 16.3 mmol/L
Vz [26]: 4480.43 L/kg
AUC(0-t) at 48 h [27]: 52.2 ng·h/mL
inhibition [28]: Dde
Activity [29]: Tde
clearance [30]: 113 mL/min/kg
